Results: US5120711A, “Synergistically active veterinary compositions and process for preparing same” (EGIS Gyogyszergyar, priority 1988, dated 1992)
Positions of bridges follow the written chain, without caps; N, C: chain ends. Non-standard residues stand in square brackets, D forms with d. Residues, ends and D or L forms follow the SMILES beside them. *: point of attachment. Octanoyl(6-Me) = CCC(C)CCCCC(=O)*; Dab = NCC[CH](N)C(=O)O

Experiments:
[1] = test system: Streptococcus zooepidemicus; assay: MIC, serial dilution in phenol red-glucose broth; type: cell-based; conditions: bactericidal, complete inhibition of growth, 37° C.; for MIC: Streptococcus equi, read-out: MIC values for microorganism B (Streptococcus zooepidemicus)
Procedure: (§1) The minimum inhibitory concentrations (MIC values) of the above compounds and their two-component combinations of 1:1 ratio by weight against the following microorganisms arising from mastitis and metritis processes of cattle were tested by using the serial dilution method in a phenol red-glucose broth medium (manufactured by DIFCO) or, by using a Sabouraud's broth medium, respectively in the cases of fungal strains.
B--Streptococcus zooepidemicus
(§2) Bacterial strains were cultivated at 37° C. whilst the fungal strain (Candida albicans) was propagated at 26° C.

Campylobacter fetus = assay: MIC in semiliquid thiol culture medium; type: cell-based; conditions: bactericidal, complete inhibition of growth, 37° C.; for MIC: Campylobacter fetus, read-out: MIC values for microorganism O (Campylobacter fetus)
Procedure: as §1
(§3) Campylobacter strains were tested in a semiliquid thiol culture medium (manufactured by DIFCO). Bacteroides fragilis and Fusobacterium necrophorum strains were examined by using the agar dilution method on bloody agar containing also tryptose.
as §2

Campylobacter jejuni = assay: MIC in semiliquid thiol culture medium; type: cell-based; conditions: bactericidal, complete inhibition of growth, 37° C.; for MIC: Campylobacter jejuni, read-out: MIC values for microorganism P (Campylobacter jejuni)
Procedure: as §1, §3, §2

Streptococcus faecalis = assay: MIC, serial dilution in phenol red-glucose broth; type: cell-based; conditions: bactericidal, complete inhibition of growth, 37° C.; for MIC: Enterococcus faecalis, read-out: MIC values for microorganism K (Streptococcus faecalis)
Procedure: as §1
K--Streptococcus faecalis
as §2

Pseudomonas aeruginosa = assay: MIC, serial dilution in phenol red-glucose broth; type: cell-based; conditions: bactericidal, complete inhibition of growth, 37° C.; for MIC: Pseudomonas aeruginosa, read-out: MIC values for microorganism F (Pseudomonas aeruginosa)
Procedure: as §1
F--Pseudomonas aeruginosa
as §2

Aspergillus fumigatus = assay: MIC, serial dilution in Sabouraud's broth; type: cell-based; conditions: complete inhibition of growth; for MIC: Aspergillus fumigatus, read-out: MIC values for microorganism Z (Aspergillus fumigatus)
Procedure: as §1
Z--Aspergillus fumigatus.
as §2

Salmonella typhimurium = assay: MIC, serial dilution in phenol red-glucose broth; type: cell-based; conditions: bactericidal, complete inhibition of growth, 37° C.; for MIC: Salmonella enterica, TYPHIMURIUM, read-out: MIC values for microorganism N (Salmonella typhimurium)
Procedure: as §1
N--Salmonella typhimurium
as §2

Candida albicans = assay: MIC, serial dilution in Sabouraud's broth; type: cell-based; conditions: for MIC: Candida albicans, read-out: MIC values for microorganism G (Candida albicans)
Procedure: as §1, §2

Mycoplasma bovis = assay: MIC, serial dilution in phenol red-glucose broth; type: cell-based; conditions: bactericidal, complete inhibition of growth, 37° C.; for MIC: Mycoplasmopsis bovis, read-out: MIC values for microorganism T (Mycoplasma bovis)
Procedure: as §1
Bacterial strains were cultivated at 37° C. whilst the fungal strain (Candida albicans) was propagated at 26° C. The minimum inhibitory concentrations (MIC values) showing a bactericidal effect, i.e. complete inhibition of the growth of microorganisms whereby the media inoculated remained sterile, are summarized in Table 1.

[2] = test system: Streptococcus dysgalactiae; assay: MIC, serial dilution in phenol red-glucose broth; type: cell-based; conditions: bactericidal, complete inhibition of growth, 37° C.; for MIC: Streptococcus dysgalactiae, read-out: MIC values for microorganism I (Streptococcus dysgalactiae)
Procedure: as §1
I--Streptococcus dysgalactiae
as §2

[3] = test system: Fusobacterium necrophorum; assay: MIC, agar dilution method on bloody agar; type: cell-based; conditions: agar dilution method on bloody agar containing tryptose, 37° C.; for MIC: Fusobacterium necrophorum, read-out: MIC values for microorganism S (Fusobacterium necrophorum)
Procedure: as §1
S--Fusobacterium necrophorum
as §3, §2

Bacteroides fragilis = assay: MIC, agar dilution method on bloody agar; type: cell-based; conditions: agar dilution method on bloody agar containing tryptose, 37° C.; for MIC: Bacteroides fragilis, read-out: MIC values for microorganism R (Bacteroides fragilis)
Procedure: as §1, §3, §2

Listeria monocytogenes = assay: MIC, serial dilution in phenol red-glucose broth; type: cell-based; conditions: bactericidal, complete inhibition of growth, 37° C.; for MIC: Listeria monocytogenes, read-out: MIC values for microorganism L (Listeria monocytogenes)
Procedure: as §1
L--Listeria monocytogenes
as §2

Escherichia coli 17 = assay: microbe, parasite or virus in culture; conditions: for MIC: Escherichia coli, 17, read-out: MIC values for microorganism D (Escherichia coli 17)
Procedure: as §1, §2

Escherichia coli 494 = assay: microbe, parasite or virus in culture; conditions: for MIC: Escherichia coli, 494, read-out: MIC values for microorganism C (Escherichia coli 494)
Procedure: as §1, §2

Staphylococcus aureus = assay: microbe, parasite or virus in culture; conditions: for MIC: Staphylococcus aureus, read-out: MIC values for microorganism A (Staphylococcus aureus)
Procedure: as §1, §2

Corynebacterium pyogenes = assay: MIC, serial dilution in phenol red-glucose broth; type: cell-based; conditions: bactericidal, complete inhibition of growth, 37° C.; for MIC: Corynebacterium pyogenes, read-out: MIC values for microorganism M (Corynebacterium pyogenes)
Procedure: as §1
M--Corynebacterium pyogenes
as §2

Streptococcus agalactiae = assay: MIC, serial dilution in phenol red-glucose broth; type: cell-based; conditions: bactericidal, complete inhibition of growth, 37° C.; for MIC: Streptococcus agalactiae, read-out: MIC values for microorganism H (Streptococcus agalactiae)
Procedure: as §1
H--Streptococcus agalactiae
as §2

Klebsiella pneumoniae = assay: MIC, serial dilution in phenol red-glucose broth; type: cell-based; conditions: bactericidal, complete inhibition of growth, 37° C.; for MIC: Klebsiella pneumoniae, read-out: MIC values for microorganism E (Klebsiella pneumoniae)
Procedure: as §1, §2

Mycoplasma bovirhinis = assay: MIC, serial dilution in phenol red-glucose broth; type: cell-based; conditions: bactericidal, complete inhibition of growth, 37° C.; for MIC: Mycoplasma, read-out: MIC values for microorganism U (Mycoplasma bovirhinis)
Procedure: as §1, §2

Mycoplasma canadense = assay: MIC, serial dilution in phenol red-glucose broth; type: cell-based; conditions: bactericidal, complete inhibition of growth, 37° C.; for MIC: Mycoplasma, read-out: MIC values for microorganism V (Mycoplasma canadense)
Procedure: as §1, §2

Streptococcus uberis = assay: MIC, serial dilution in phenol red-glucose broth; type: cell-based; conditions: bactericidal, complete inhibition of growth, 37° C.; for MIC: Streptococcus uberis, read-out: MIC values for microorganism J (Streptococcus uberis)
Procedure: as §1, §2

[4] = complete inhibition of growth, Sabouraud's broth, 26° C.
[5] = bactericidal, complete inhibition of growth, phenol red-glucose broth, 37° C.

**Q.** For Cc1ccc2c(Cl)cc(Cl)c(O)c2n1 [Chlorquinaldol, 2-methyl-5,7-dichloro-8-hydroxyquinoline], which MIC [1] is on record?
**A.** 0.5 µg/mL

**Q.** And the MIC (Campylobacter fetus)?
**A.** 10 µg/mL

**Q.** And the MIC (Campylobacter jejuni)?
**A.** 5 µg/mL

**Q.** What about the MIC (Streptococcus faecalis) of the same molecule?
**A.** 5 µg/mL

**Q.** And the MIC (Pseudomonas aeruginosa)?
**A.** 200 µg/mL

**Q.** And the MIC (Aspergillus fumigatus)?
**A.** 25 µg/mL

**Q.** And the MIC (Salmonella typhimurium)?
**A.** 200 µg/mL

**Q.** And the MIC (Candida albicans; [4])?
**A.** 1 µg/mL

**Q.** And the MIC (Mycoplasma bovis)?
**A.** 32 µg/mL

**Q.** What about the MIC [2] of the same molecule?
**A.** 0.5 µg/mL

**Q.** And the MIC [3]?
**A.** 3 µg/mL

**Q.** What about the MIC (Bacteroides fragilis) of the same molecule?
**A.** 1.5 µg/mL

**Q.** What about the MIC (Listeria monocytogenes) of the same molecule?
**A.** 1 µg/mL

**Q.** And the MIC (Escherichia coli 17)?
**A.** 5 µg/mL

**Q.** And the MIC (Escherichia coli 494)?
**A.** 5 µg/mL

**Q.** And the MIC (Staphylococcus aureus)?
**A.** 5 µg/mL

**Q.** And the MIC (Corynebacterium pyogenes)?
**A.** 5 µg/mL

**Q.** What about the MIC (Streptococcus agalactiae) of the same molecule?
**A.** 0.5 µg/mL

**Q.** And the MIC (Klebsiella pneumoniae)?
**A.** 200 µg/mL

**Q.** And the MIC (Mycoplasma bovirhinis)?
**A.** 4 µg/mL

**Q.** And the MIC (Mycoplasma canadense)?
**A.** 8 µg/mL

**Q.** What about the MIC (Streptococcus uberis) of the same molecule?
**A.** 0.5 µg/mL

**Q.** How did the MIC [1] turn out when Clc1ccccc1C(c1ccccc1)(c1ccccc1)n1ccnc1 [Clotrimazole, 1-(2-chlorophenyl)-diphenylmethyl-1H-imidazole] was run?
**A.** 0.5 µg/mL

**Q.** What about the MIC (Campylobacter fetus) of the same molecule?
**A.** 100 µg/mL

**Q.** What about the MIC (Campylobacter jejuni) of the same molecule?
**A.** 100 µg/mL

**Q.** And the MIC (Streptococcus faecalis)?
**A.** 5 µg/mL

**Q.** And the MIC (Pseudomonas aeruginosa)?
**A.** > 200 µg/mL

**Q.** What about the MIC (Aspergillus fumigatus) of the same molecule?
**A.** 1 µg/mL

**Q.** And the MIC (Salmonella typhimurium)?
**A.** 200 µg/mL

**Q.** And the MIC (Candida albicans; [4])?
**A.** 5 µg/mL

**Q.** What about the MIC (Mycoplasma bovis) of the same molecule?
**A.** 32 µg/mL

**Q.** What about the MIC [2] of the same molecule?
**A.** 0.5 µg/mL

**Q.** What about the MIC [3] of the same molecule?
**A.** 100 µg/mL

**Q.** What about the MIC (Bacteroides fragilis) of the same molecule?
**A.** 200 µg/mL

**Q.** And the MIC (Listeria monocytogenes)?
**A.** 5 µg/mL

**Q.** And the MIC (Escherichia coli 17)?
**A.** > 200 µg/mL

**Q.** And the “effect on Escherichia coli strains, in words” value (Escherichia coli 17; substance alone)?
**A.** very weak effect

**Q.** What about the MIC (Escherichia coli 494) of the same molecule?
**A.** > 200 µg/mL

**Q.** And the “effect on Escherichia coli strains, in words” value (Escherichia coli 494; substance alone)?
**A.** very weak effect

**Q.** And the MIC (Staphylococcus aureus)?
**A.** 0.5 µg/mL

**Q.** What about the MIC (Corynebacterium pyogenes) of the same molecule?
**A.** 25 µg/mL

**Q.** What about the MIC (Streptococcus agalactiae) of the same molecule?
**A.** 5 µg/mL

**Q.** What about the MIC (Klebsiella pneumoniae) of the same molecule?
**A.** > 200 µg/mL

**Q.** And the MIC (Mycoplasma bovirhinis)?
**A.** 32 µg/mL

**Q.** What about the MIC (Mycoplasma canadense) of the same molecule?
**A.** 32 µg/mL

**Q.** What about the MIC (Streptococcus uberis) of the same molecule?
**A.** 0.5 µg/mL

**Q.** Which results are given for CCC(C)CCCCC(=O)NC(CCN)C(=O)NC(C(=O)NC(CCN)C(=O)NC1CCNC(=O)C(C(C)O)NC(=O)C(CCN)NC(=O)C(CCN)NC(=O)C(CC(C)C)NC(=O)C(Cc2ccccc2)NC(=O)C(CCN)NC1=O)C(C)O (stereo not drawn) [Polymyxin B, 6,9,18-tris(2-aminoethyl)-15-benzyl-21-[2,8-bis(2-aminoethyl)-5-(1-hydroxyethyl)-15-methyl-4,7,10-trioxo-3,6,9-triazaheptadecanamido]-3-(1-hydroxyethyl)-12-isobutyl-1,4,7,10,13,16,19-heptaazacyclotricosane-2,5,8,11,14,17,20-heptaone] ({Octanoyl(6-Me)}-[Dab]T[Dab][Dab][Dab]FL[Dab][Dab]T; lactam 4-C; configuration not given here)?
**A.** MIC values for microorganism B (Streptococcus zooepidemicus) [1]: 5 µg/mL; MIC values for microorganism O (Campylobacter fetus) (Campylobacter fetus): 0.5 µg/mL; MIC values for microorganism P (Campylobacter jejuni) (Campylobacter jejuni): 5 µg/mL; MIC values for microorganism K (Streptococcus faecalis) (Streptococcus faecalis): 200 µg/mL; MIC values for microorganism F (Pseudomonas aeruginosa) (Pseudomonas aeruginosa): 0.5 µg/mL; MIC values for microorganism Z (Aspergillus fumigatus) (Aspergillus fumigatus): 200 µg/mL; MIC values for microorganism N (Salmonella typhimurium) (Salmonella typhimurium): 1 µg/mL; MIC values for microorganism G (Candida albicans) (Candida albicans; [4]): 200 µg/mL; fungicidal action, in words (Candida albicans; substance alone): practically no fungicidal action; MIC values for microorganism T (Mycoplasma bovis) (Mycoplasma bovis): 32 µg/mL; MIC values for microorganism I (Streptococcus dysgalactiae) [2]: 5 µg/mL; MIC values for microorganism S (Fusobacterium necrophorum) [3]: 200 µg/mL; MIC values for microorganism R (Bacteroides fragilis) (Bacteroides fragilis): 200 µg/mL; MIC values for microorganism L (Listeria monocytogenes) (Listeria monocytogenes): 5 µg/mL; MIC values for microorganism D (Escherichia coli 17) (Escherichia coli 17; [5]): 0.5 µg/mL; MIC values for microorganism C (Escherichia coli 494) (Escherichia coli 494; [5]): 0.5 µg/mL; MIC values for microorganism A (Staphylococcus aureus) (Staphylococcus aureus; [5]): 50 µg/mL; MIC values for microorganism M (Corynebacterium pyogenes) (Corynebacterium pyogenes): 200 µg/mL; MIC values for microorganism H (Streptococcus agalactiae) (Streptococcus agalactiae): 5 µg/mL; MIC values for microorganism E (Klebsiella pneumoniae) (Klebsiella pneumoniae): 5 µg/mL; MIC values for microorganism U (Mycoplasma bovirhinis) (Mycoplasma bovirhinis): 32 µg/mL; MIC values for microorganism V (Mycoplasma canadense) (Mycoplasma canadense): 32 µg/mL; MIC values for microorganism J (Streptococcus uberis) (Streptococcus uberis): 10 µg/mL
